Read-outs that look alike come from different tables or passages of the source.
Target: T1, His6-AspH315–758 (human aspartate/asparagine-β-hydroxylase, AspH) (Homo sapiens, UniProt Q12797)
T1 construct: N-Terminally His6-tagged human AspH315–758 (His6-AspH315–758) was produced in E. coli BL21 (DE3) cells; made in house; host or cells: E. coli BL21 (DE3), pET-28a(+) vector
T1 sequence (Q12797 315-758): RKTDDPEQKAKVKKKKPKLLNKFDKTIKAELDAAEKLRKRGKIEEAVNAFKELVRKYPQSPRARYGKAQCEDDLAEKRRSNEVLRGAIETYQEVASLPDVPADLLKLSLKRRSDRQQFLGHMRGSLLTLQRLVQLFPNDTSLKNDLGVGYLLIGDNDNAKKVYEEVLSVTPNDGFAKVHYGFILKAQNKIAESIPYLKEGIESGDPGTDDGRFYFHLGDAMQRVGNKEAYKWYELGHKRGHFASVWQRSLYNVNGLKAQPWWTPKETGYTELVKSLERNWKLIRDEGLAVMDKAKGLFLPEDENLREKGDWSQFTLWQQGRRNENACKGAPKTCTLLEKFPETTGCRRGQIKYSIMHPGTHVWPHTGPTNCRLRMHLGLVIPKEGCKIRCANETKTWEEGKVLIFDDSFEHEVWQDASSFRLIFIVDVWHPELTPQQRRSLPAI
Test: SPE-MS AspH inhibition assay (LOPAC screen at fixed 20 μM and IC50 dose-response), hydroxylation of cyclic peptide hFX-CP101–119
Format: biochemical

[1] = LOPAC compound at fixed 20 uM, plate 1, normalised to DMSO and 2,4-PDCA controls
[2] = LOPAC compound at fixed 20 uM, substrate conversion, plate 1
[3] = LOPAC compound at 20uM, plate 3, conversion of substrate peptide
[4] = LOPAC Plate 4, compound at 20 uM, substrate conversion
[5] = LOPAC compound at 20uM, plate 2, conversion of substrate peptide
[6] = LOPAC compound at 20uM, plate 2, normalised to DMSO and 2,4-PDCA controls
[7] = AspH activity, fixed compound concentration 20 μM, initial LOPAC screen, 0.5%v/v DMSO

C=CCn1c(=O)c2c(nc(-c3ccc(S(=O)(=O)O)cc3)n2C)n(C)c1=O
Plate 1 (% inhibition) [1]: -6.98% | Plate 1 (% conversion) [2]: 38.22%

Cl.NC1(C(=O)O)CCCCC1
Plate 1 (% inhibition) [1]: 1.04% | Plate 1 (% conversion) [2]: 35.52%

Cl.NC1(C(=O)O)CC1
Plate 1 (% inhibition) [1]: -3.97%

Clc1ccc(C(c2ccccc2Cl)C(Cl)Cl)cc1 (centres unmarked)
Plate 1 (% inhibition) [1]: -5.18% | Plate 1 (% conversion) [2]: 37.61%

COc1ccccc1N1CCNCC1.Cl
% conversion: 37.50% | % inhibition (20 µM): -3.01%

COc1ccc2c(c1)c(CC(=O)O)c(C)n2Cc1ccc(Cl)cc1
Plate 1 (% inhibition) [1]: 5.27% | Plate 1 (% conversion) [2]: 34.10%

CC1CNCCN1S(=O)(=O)c1cccc2cnccc12.Cl.Cl (centres unmarked)
Plate 3 (% conversion) [3]: 5.68%

C[N+]1(C)CCN(c2ccccc2)CC1.[I-]
Plate 2 (% conversion): 36.09% | Plate 2 (% inhibition) (20 µM): -0.39%

CSc1nc(N)c2ncn([C@@H]3O[C@H](COP(=O)([O-])OP(=O)([O-])OP(=O)([O-])[O-])[C@@H](O)[C@H]3O)c2n1.[Na+].[Na+].[Na+].[Na+]
Plate 1 (% inhibition) [1]: 63.66% | Plate 1 (% conversion) [2]: 14.49%

Br.Br.N=C(N)SCCN
Plate 1 (% inhibition) [1]: -13.77% | Plate 1 (% conversion) [2]: 40.50%

CSc1nc(N)c2ncn([C@@H]3O[C@H](COP(=O)([O-])OP(=O)([O-])[O-])[C@@H](O)[C@H]3O)c2n1.O.[Na+].[Na+].[Na+]
Plate 1 (% inhibition) [1]: 16.28% | Plate 1 (% conversion) [2]: 30.40%

CN1C2CCC1CC(OC(=O)c1c[nH]c3ccccc13)C2.Cl (centres unmarked)
% conversion: 31.98%

C[N+]1(C)C2CCC1CC(OC(=O)c1c[nH]c3ccccc13)C2.[I-] (centres unmarked)
% conversion [4]: 36.85%

C[C@]12CC[C@@H](O)C[C@@H]1CC[C@@H]1[C@@H]2CC[C@]2(C)[C@@H](C(=O)CO)CC[C@@H]12
Plate 3 (% conversion): 42.66%

Cl.N=C(N)c1ccc(CS(=O)(=O)F)cc1
Plate 3 (% conversion): 34.27%

Cl.NCCc1ccc(S(=O)(=O)F)cc1
Plate 1 (% conversion): 34.69% | Plate 1 (% inhibition): 3.52%

COc1ccc2[nH]c3c(c2c1)CCNC3
Plate 1 (% conversion): 36.98% | Plate 1 (% inhibition) [1]: -3.29%

Cc1cccc(C#Cc2ccccc2)n1.Cl
Plate 3 (% conversion): 40.82%

Oc1cc(-c2ccccc2)nc2nc(Cl)ccc12
Plate 1 (% conversion): 39.07% | Plate 1 (% inhibition): -9.52%

Nc1ncnc2c1c(-c1ccc(Oc3ccccc3)cc1)cn2C1CCCC1
Plate 2 (% conversion) [5]: 45.34% | Plate 2 (% inhibition) [6]: -28.02%

COCc1nc2c([nH]1)c(=O)n(C)c(=O)n2CC(C)C
Plate 3 (% conversion) [3]: 35.26%

Cl.Nc1c2c(nc3ccccc13)CCCC2
Plate 1 (% conversion): 23.39%

C[C@H]1CCC/C=C/[C@@H]2C[C@H](O)C[C@H]2[C@H](O)/C=C/C(=O)O1
Plate 1 (% conversion): 38.82% | Plate 1 (% inhibition): -8.79%

C[N+](C)(C)CCOP(=O)([O-])OP(=O)([O-])OC[C@H]1O[C@@H](n2ccc(N)nc2=O)[C@H](O)[C@@H]1O.[Na+]
Plate 2 (% conversion) [5]: 36.80% | Plate 2 (% inhibition) [6]: -2.53%

Cl.Nc1ccn([C@@H]2O[C@H](CO)[C@@H](O)[C@@H]2O)c(=O)n1
Plate 1 (% inhibition) [1]: -2.68% | Plate 1 (% conversion) [2]: 36.77%

Cl.O[Si](CCCN1CCCCC1)(c1ccc(F)cc1)C1CCCCC1 (centres unmarked)
Plate 2 (% conversion) [5]: 40.91% | Plate 2 (% inhibition) [6]: -14.81%

C[C@@H](N)Cc1cnc[nH]1.Cl.Cl
Plate 2 (% conversion): 36.76% | Plate 2 (% inhibition) (20 µM): -2.41%

COC(=O)[C@@H](N)Cc1ccc(O)c(O)c1.Cl
Plate 2 (% conversion) [5]: 10.54% | Plate 2 (% inhibition) [6]: 75.90%

COc1cccc(C(=O)NCCN2CCN(c3ccc(Cl)cc3)CC2)c1
Plate 1 (% inhibition) [1]: -7.35% | Plate 1 (% conversion) [2]: 38.34%

CNCCc1c[nH]c2ccc(O)cc12.O=C(O)C(=O)O
Plate 3 (% conversion): 9.71%

Cc1ccc(S(=O)(=O)N[C@@H](Cc2ccccc2)C(=O)CCl)cc1
% inhibition (LOPAC Plate 4, compound at 20 uM): -4.78% | % conversion [4]: 38.10%

COC(=O)[C@@H](N)CCCN=C(N)N[N+](=O)[O-].Cl
Plate 3 (% conversion) [3]: 34.54%

CCCCCCN(CCCCCC)C(=O)Cc1c(-c2ccc(F)cc2)[nH]c2ccccc12
Plate 2 (% conversion): 35.52% | Plate 2 (% inhibition) (20 µM): 1.31%

Cc1ccc(S(=O)(=O)N[C@@H](CCCCN)C(=O)CCl)cc1.Cl
% conversion: 33.91%

Cl.NOCC(=O)O.NOCC(=O)O
Plate 1 (% inhibition) [1]: -6.07% | Plate 1 (% conversion) [2]: 37.91%

Nc1ncnc2c1ncn2[C@@H]1O[C@H](COP(=O)(O)OP(=O)(O)OP(=O)(O)OP(=O)(O)OC[C@H]2O[C@@H](n3cnc4c(N)ncnc43)[C@H](O)[C@@H]2O)[C@@H](O)[C@H]1O
Plate 2 (% conversion) [5]: 27.58% | Plate 2 (% inhibition) [6]: 25.01%

Cl.Cl.Fc1ccc([C@@H]2CCNC[C@H]2COc2ccc3c(c2)OCO3)cc1.Fc1ccc([C@@H]2CCNC[C@H]2COc2ccc3c(c2)OCO3)cc1.O
Plate 1 (% inhibition) [1]: -22.48% | Plate 1 (% conversion) [2]: 43.42%

Br.CCCN1CCc2cc(O)cc3c2[C@H]1Cc1ccc(O)c(O)c1-3
Plate 2 (% conversion) [5]: 6.67% | Plate 2 (% inhibition) [6]: 87.47%

Br.CN1CCc2cc(O)cc3c2[C@H]1Cc1ccc(O)c(O)c1-3
Plate 2 (% conversion) [5]: 6.73% | Plate 2 (% inhibition) [6]: 87.29%

C[C@H](O)[C@H](O)[C@H]1CNc2nc(N)[nH]c(=O)c2N1.Cl
% conversion [4]: 25.86%

Nc1ncnc2c1ncn2[C@@H]1O[C@H](COP(=O)(O)CP(=O)(O)OP(=O)([O-])[O-])[C@@H](O)[C@H]1O.[Li+].[Li+]
Plate 3 (% conversion) [3]: 17.86%

5-Bromo-2-deoxyuridine
Plate 1 (% conversion): 35.50% | Plate 1 (% inhibition): 1.12%

10058-F4
Plate 1 (% conversion): 30.76% | Plate 1 (% inhibition): 15.22%

COC(=O)C(N)Cc1ccc(Cl)cc1.Cl (racemic)
Plate 1 (% inhibition) [1]: 1.48% | Plate 1 (% conversion) [2]: 35.38%

CC(N)c1cccc(Cl)c1Cl.Cl (racemic)
Plate 2 (% conversion): 38.94% | Plate 2 (% inhibition) (20 µM): -8.91%

CC(N)(Cc1ccc(O)c(O)c1)C(=O)O (racemic)
Plate 3 (% conversion) [3]: 9.94%

CCCCCCCCCC(=O)NC(CN1CCOCC1)[C@H](O)c1ccccc1.Cl (mixture of isomers)
% conversion [4]: 45.09%

NC(Cc1cc(O)c(O)cc1O)C(=O)O (racemic) [6-Hydroxy-DL-DOPA, reference compound]
Inhibition at 20 µM [%]: 103.1% | Plate 2 (% conversion): 1.44% | Plate 2 (% inhibition) (20 µM): 103.09%

CN1[C@H]2C[C@H](OC(=O)[C@H](CO)c3ccccc3)C[C@@H]1[C@@H](O)C2 (racemic) [(+/-)-Anisodamine]
Plate 2 (% conversion): 36.39% | Plate 2 (% inhibition) (20 µM): -1.30%

NC(CP(=O)(O)O)C(=O)O (racemic) [(±)-2-Amino-3-phosphonopropionic acid]
Plate 1 (% conversion): 38.27% | Plate 1 (% inhibition): -7.14%

NC(CCP(=O)(O)O)C(=O)O (racemic) [(±)-2-Amino-4-phosphonobutyric acid]
Plate 1 (% conversion): 37.71% | Plate 1 (% inhibition): -5.48%

NC(CCCP(=O)(O)O)C(=O)O (racemic) [(±)-2-Amino-5-phosphonopentanoic acid]
Plate 1 (% conversion): 39.06% | Plate 1 (% inhibition) [1]: -9.50%

Br.Oc1cc2c(c(Cl)c1O)CCNCC2c1ccccc1 (racemic) [(±)-6-Chloro-PB hydrobromide, reference compound]
Inhibition at 20 µM [%] [7]: 98.8% | % conversion [4]: 2.77%

Br.CCCN(CCC)C1CCc2ccc(O)cc2C1 (racemic) [(±)-7-Hydroxy-DPAT hydrobromide]
Plate 2 (% conversion) [5]: 37.82% | Plate 2 (% inhibition) [6]: -5.57%

CC1CCN=C(N)S1.Cl (racemic) [(±)-AMT hydrochloride]
Plate 1 (% conversion): 36.89% | Plate 1 (% inhibition): -3.04%

NCC(CC(=O)O)c1ccc(Cl)cc1 (racemic) [(±)-Baclofen]
Plate 1 (% inhibition) [1]: -1.99% | Plate 1 (% conversion) [2]: 36.54%

COC(=O)C1=C(C)NC(C)=C([N+](=O)[O-])C1c1ccccc1C(F)(F)F (racemic) [(±)-Bay K 8644]
Plate 1 (% inhibition) [1]: -22.02% | Plate 1 (% conversion) [2]: 43.27%

CN(C)CCC(c1ccc(Br)cc1)c1ccccn1.O=C(O)/C=C\C(=O)O (racemic) [(±)-Brompheniramine maleate]
Plate 1 (% inhibition) [1]: 8.96% | Plate 1 (% conversion) [2]: 32.86%

CC(C)(C)NCC(O)COc1cccc2[nH]c(=O)[nH]c12.Cl (racemic) [(±)-CGP-12177A hydrochloride]
Plate 2 (% conversion) [5]: 36.58% | Plate 2 (% inhibition) [6]: -1.88%

Br.C=CCN1CCc2c(cc(O)c(O)c2Cl)C(c2ccccc2)C1 (racemic) [(±)-Chloro-APB hydrobromide, reference compound]
Inhibition at 20 µM [%] [7]: 95.8% | Plate 2 (% conversion) [5]: 3.87% | Plate 2 (% inhibition) [6]: 95.82%

CN(C)CCC(c1ccc(Cl)cc1)c1ccccn1.O=C(O)/C=C\C(=O)O (racemic) [(±)-Chlorpheniramine maleate]
Plate 1 (% inhibition) [1]: -6.31% | Plate 1 (% conversion) [2]: 37.99%

CNCC(O)c1ccc(O)c(O)c1.Cl (racemic) [(±)-Epinephrine hydrochloride]
Plate 2 (% conversion) [5]: 6.18% | Plate 2 (% inhibition) [6]: 88.94%
